Data as given in US9850283B2, “Macrocyclic inhibitors of the PD-1/PD-L1 and CD80(B7-1)/PD-L1 protein/protein interactions” (BRISTOL-MYERS SQUIBB COMPANY, priority 2013, dated 2017).
Positions of bridges follow the written chain, without caps; N, C: chain ends. Non-standard residues stand in square brackets, D forms with d. Residues, ends and D or L forms follow the SMILES beside them. ξ: configuration not given here. Bta = N[C@@H](Cc1csc2ccccc12)C(=O)O; Hyp = O=C(O)[C@@H]1C[C@@H](O)CN1; NMeNle = CCCC[C@H](NC)C(=O)O; NMeM = CN[C@@H](CCSC)C(=O)O; NMeA = CN[C@@H](C)C(=O)O; Dap = NC[C@H](N)C(=O)O; ξC = NC(CS)C(=O)O

Key:
Human PD-L1/PD-1 = biological target: T1, Human PD-L1/PD-1 (Homo sapiens, UniProt Q9NZQ7); assay: HTRF PD-1-Ig/PD-L1-His binding assay (human PD-L1); settings: cluster symbol; read-out: HTRF IC50 cluster
T1 construct: made in house; host or cells: HEK293T
T1 sequence (Q9NZQ7 with tags, fused parts or gaps): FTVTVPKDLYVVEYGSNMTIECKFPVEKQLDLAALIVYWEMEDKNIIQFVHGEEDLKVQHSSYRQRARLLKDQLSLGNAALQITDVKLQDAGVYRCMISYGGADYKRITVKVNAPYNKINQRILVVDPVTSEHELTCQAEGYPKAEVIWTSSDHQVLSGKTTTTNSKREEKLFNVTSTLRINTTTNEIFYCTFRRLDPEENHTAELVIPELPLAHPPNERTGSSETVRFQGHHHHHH
Method in brief: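 Interaction of Fc-tagged soluble PD-1 with His-tagged soluble PD-L1 is monitored by time-resolved FRET. Donor is europium cryptate anti-Ig (1 nM final) and acceptor is APC anti-His (20 nM final). Assay buffer is dPBS with 0.1% BSA and 0.05% Tween-20.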

[1] = biological target: T2, LK35.2-hPD-L1 cells / PE-labeled PD-1-Ig (Homo sapiens, UniProt Q9NZQ7); assay: LK35.2-hPD-L1 cell binding high-content screening assay; type: cell-based; settings: cell binding assay, cell line not given; cluster symbol; read-out: CBA IC50 cluster
T2 construct: expressed in transfected cells; host or cells: LK35.2 mouse B cell line
T2 sequence (Q9NZQ7 19-290): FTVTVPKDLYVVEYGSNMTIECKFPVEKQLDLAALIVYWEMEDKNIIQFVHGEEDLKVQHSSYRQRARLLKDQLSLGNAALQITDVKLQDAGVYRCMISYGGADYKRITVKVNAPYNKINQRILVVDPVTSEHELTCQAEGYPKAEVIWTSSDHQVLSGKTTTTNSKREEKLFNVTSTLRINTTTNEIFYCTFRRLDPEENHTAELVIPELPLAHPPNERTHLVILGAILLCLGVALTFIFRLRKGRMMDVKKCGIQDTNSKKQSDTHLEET
Method in brief: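 Compound effect on PD-1/PD-L1 binding is measured by imaging cell-associated phycoerythrin signal. Human PD-1-Ig (PE on Ig tag, 1 nM final) is applied with compound to a murine B cell line overexpressing human PD-L1 for 1 h at 37 °C in serum-containing RPMI.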

Row | SMILES | IC50 (Human PD-L1/PD-1) | IC50 [1]
1 | CCCC[C@H]1C(=O)N(C)[C@@H](CCCC)C(=O)N[C@@H](CCCNC(=N)N)C(=O)NC(C(=O)N[C@@H](CO)C(N)=O)CSCC(=O)N[C@@H](Cc2ccc(O)cc2)C(=O)N(C)[C@@H](C)C(=O)N[C@@H](CC(N)=O)C(=O)N2CCC[C@H]2C(=O)N[C@@H](Cc2cnc[nH]2)C(=O)N[C@@H](CO)C(=O)N2CCC[C@H]2C(=O)N[C@@H](Cc2c[nH]c3ccccc23)C(=O)N[C@@H](CO)C(=O)N[C@@H](Cc2csc3ccccc23)C(=O)N1C (stereo partly shown) [Example 9076] ({CH2CO}-Y[NMeA]NPHSPWS[Bta][NMeNle][NMeNle]R[ξC]S-NH2; thioether N-14) | 0.385 to 6.74 nM | 4.78 to 72.9 nM
2 | CCCC[C@H]1C(=O)N(C)[C@@H](CCCC)C(=O)N[C@@H](CCCNC(=N)N)C(=O)NC(C(=O)N[C@@H](CO)C(N)=O)CSCC(=O)N[C@@H](Cc2ccc(O)cc2)C(=O)N(C)[C@@H](C)C(=O)N[C@@H](CC(N)=O)C(=O)N2CCC[C@H]2C(=O)N[C@@H](Cc2cnc[nH]2)C(=O)N[C@@H](CO)C(=O)N2CCC[C@H]2C(=O)N[C@@H](Cc2c[nH]c3ccccc23)C(=O)N[C@@H](CO)C(=O)N[C@@H](Cc2c[nH]c3ccccc23)C(=O)N1C (stereo partly shown) [Example 9077] ({CH2CO}-Y[NMeA]NPHSPWSW[NMeNle][NMeNle]R[ξC]S-NH2; thioether N-14) | 6.76 to 30.3 nM | 4.78 to 72.9 nM
3 | CCCC[C@H]1C(=O)N(C)[C@@H](CCCC)C(=O)N[C@@H](CCCNC(=N)N)C(=O)NC(C(=O)N[C@@H](CO)C(N)=O)CSCC(=O)N[C@@H](Cc2ccc(O)cc2)C(=O)N(C)[C@@H](C)C(=O)N[C@@H](CC(N)=O)C(=O)N2CCC[C@H]2C(=O)N[C@@H](Cc2cnc[nH]2)C(=O)N[C@@H](CO)C(=O)N2C[C@H](O)C[C@H]2C(=O)N[C@@H](Cc2c[nH]c3ccccc23)C(=O)N[C@@H](CO)C(=O)N[C@@H](Cc2csc3ccccc23)C(=O)N1C (stereo partly shown) [Example 9078] ({CH2CO}-Y[NMeA]NPHS[Hyp]WS[Bta][NMeNle][NMeNle]R[ξC]S-NH2; thioether N-14) | 6.76 to 30.3 nM | 0.158 to 4.71 nM
4 | CCCC[C@H]1C(=O)N(C)[C@@H](CCCC)C(=O)N[C@@H](CCCNC(=N)N)C(=O)NC(C(=O)N[C@@H](CO)C(N)=O)CSCC(=O)N[C@@H](Cc2ccc(O)cc2)C(=O)N(C)[C@@H](C)C(=O)N[C@@H](CC(N)=O)C(=O)N2CCC[C@H]2C(=O)N[C@@H](Cc2cnc[nH]2)C(=O)N[C@@H](CO)C(=O)N2C[C@H](O)C[C@H]2C(=O)N[C@@H](Cc2c[nH]c3ccccc23)C(=O)N[C@@H](CO)C(=O)N[C@@H](Cc2c[nH]c3ccccc23)C(=O)N1C (stereo partly shown) [Example 9079] ({CH2CO}-Y[NMeA]NPHS[Hyp]WSW[NMeNle][NMeNle]R[ξC]S-NH2; thioether N-14) | 0.385 to 6.74 nM | 4.78 to 72.9 nM
5 | CCCC[C@H]1C(=O)N(C)[C@@H](CCCC)C(=O)N[C@@H](CCCNC(=N)N)C(=O)NC(C(=O)N[C@@H](CO)C(N)=O)CSCC(=O)N[C@@H](Cc2ccc(O)cc2)C(=O)N(C)[C@@H](C)C(=O)N[C@@H](CC(N)=O)C(=O)N2CCC[C@H]2C(=O)N[C@@H](CO)C(=O)N[C@@H](CC(C)C)C(=O)N2C[C@H](O)C[C@H]2C(=O)N[C@@H](Cc2c[nH]c3ccccc23)C(=O)N[C@@H](CO)C(=O)N[C@@H](Cc2c[nH]c3ccccc23)C(=O)N1C (stereo partly shown) [Example 9080] ({CH2CO}-Y[NMeA]NPSL[Hyp]WSW[NMeNle][NMeNle]R[ξC]S-NH2; thioether N-14) | 0.385 to 6.74 nM | 0.158 to 4.71 nM
6 | CCCC[C@H]1C(=O)N(C)[C@@H](CCSC)C(=O)N[C@@H](CCCNC(=N)N)C(=O)NC(C(=O)NCC(N)=O)CSCC(=O)N[C@@H](Cc2ccc(O)cc2)C(=O)N(C)[C@@H](C)C(=O)N[C@@H](CC(N)=O)C(=O)N2CCC[C@H]2C(=O)N[C@@H](CN)C(=O)N[C@@H](CC(C)C)C(=O)N2CCC[C@H]2C(=O)N[C@@H](Cc2c[nH]c3ccccc23)C(=O)N[C@@H](CO)C(=O)N[C@@H](Cc2c[nH]c3ccccc23)C(=O)N1C (stereo partly shown) [Example 9081] ({CH2CO}-Y[NMeA]NP[Dap]LPWSW[NMeNle][NMeM]R[ξC]G-NH2; thioether N-14) | 0.385 to 6.74 nM | 0.158 to 4.71 nM
7 | CCCC[C@H]1C(=O)N(C)[C@@H](CCSC)C(=O)N[C@@H](CCCNC(=N)N)C(=O)NC(C(=O)NCC(N)=O)CSCC(=O)N[C@@H](Cc2ccc(O)cc2)C(=O)N(C)[C@@H](C)C(=O)N[C@@H](CC(N)=O)C(=O)N2CCC[C@H]2C(=O)N[C@@H](CN)C(=O)N[C@@H](CC(C)C)C(=O)N2CCC[C@H]2C(=O)N[C@@H](Cc2c[nH]c3ccccc23)C(=O)N[C@@H](CO)C(=O)N[C@@H](Cc2csc3ccccc23)C(=O)N1C (stereo partly shown) [Example 9082] ({CH2CO}-Y[NMeA]NP[Dap]LPWS[Bta][NMeNle][NMeM]R[ξC]G-NH2; thioether N-14) | 0.385 to 6.74 nM | 0.158 to 4.71 nM
8 | CCCC[C@H]1C(=O)N(C)[C@@H](CCSC)C(=O)N[C@@H](CCCNC(=N)N)C(=O)NC(C(=O)NCC(N)=O)CSCC(=O)N[C@@H](Cc2ccc(O)cc2)C(=O)N(C)[C@@H](C)C(=O)N[C@@H](CC(N)=O)C(=O)N2CCC[C@H]2C(=O)N[C@@H](CN)C(=O)N[C@@H](CC(C)C)C(=O)N2C[C@H](O)C[C@H]2C(=O)N[C@@H](Cc2c[nH]c3ccccc23)C(=O)N[C@@H](CO)C(=O)N[C@@H](Cc2c[nH]c3ccccc23)C(=O)N1C (stereo partly shown) [Example 9083] ({CH2CO}-Y[NMeA]NP[Dap]L[Hyp]WSW[NMeNle][NMeM]R[ξC]G-NH2; thioether N-14) | 6.76 to 30.3 nM | 0.158 to 4.71 nM
9 | CCCC[C@H]1C(=O)N(C)[C@@H](CCSC)C(=O)N[C@@H](CCCNC(=N)N)C(=O)NC(C(=O)NCC(N)=O)CSCC(=O)N[C@@H](Cc2ccc(O)cc2)C(=O)N(C)[C@@H](C)C(=O)N[C@@H](CC(N)=O)C(=O)N2CCC[C@H]2C(=O)N[C@@H](CN)C(=O)N[C@@H](CC(C)C)C(=O)N2C[C@H](O)C[C@H]2C(=O)N[C@@H](Cc2c[nH]c3ccccc23)C(=O)N[C@@H](CO)C(=O)N[C@@H](Cc2csc3ccccc23)C(=O)N1C (stereo partly shown) [Example 9084] ({CH2CO}-Y[NMeA]NP[Dap]L[Hyp]WS[Bta][NMeNle][NMeM]R[ξC]G-NH2; thioether N-14) | 0.385 to 6.74 nM | 0.158 to 4.71 nM
10 | CCCC[C@H]1C(=O)N(C)[C@@H](CCSC)C(=O)N[C@@H](C)C(=O)NC(C(=O)NCC(N)=O)CSCC(=O)N[C@@H](Cc2ccc(O)cc2)C(=O)N(C)[C@@H](C)C(=O)N[C@@H](CC(N)=O)C(=O)N2CCC[C@H]2C(=O)N[C@@H](CN)C(=O)N[C@@H](CC(C)C)C(=O)N2CCC[C@H]2C(=O)N[C@@H](Cc2c[nH]c3ccccc23)C(=O)N[C@@H](CO)C(=O)N[C@@H](Cc2c[nH]c3ccccc23)C(=O)N1C (stereo partly shown) [Example 9085] ({CH2CO}-Y[NMeA]NP[Dap]LPWSW[NMeNle][NMeM]A[ξC]G-NH2; thioether N-14) | 0.385 to 6.74 nM | 4.78 to 72.9 nM
11 | CCCC[C@H]1C(=O)N(C)[C@@H](CCSC)C(=O)N[C@@H](C)C(=O)NC(C(=O)NCC(N)=O)CSCC(=O)N[C@@H](Cc2ccc(O)cc2)C(=O)N(C)[C@@H](C)C(=O)N[C@@H](CC(N)=O)C(=O)N2CCC[C@H]2C(=O)N[C@@H](CN)C(=O)N[C@@H](CC(C)C)C(=O)N2CCC[C@H]2C(=O)N[C@@H](Cc2c[nH]c3ccccc23)C(=O)N[C@@H](CO)C(=O)N[C@@H](Cc2csc3ccccc23)C(=O)N1C (stereo partly shown) [Example 9086] ({CH2CO}-Y[NMeA]NP[Dap]LPWS[Bta][NMeNle][NMeM]A[ξC]G-NH2; thioether N-14) | 0.385 to 6.74 nM | 0.158 to 4.71 nM
